According to patent EP3514141A1, “MAGNETIC MOLECULES” (Centre National de la Recherche Scientifique, priority 2018, dated 2019):

How the values were obtained:
Format in all cases: physicochemical
[1] = Magnetic susceptibility by the Evans method (1H NMR shift of residual CDCl3 proton); settings: solution in CDCl3; for χmass: mass susceptibility; for χmol: molar susceptibility, χmol = MW*χmass
Excerpt: For the prepared molecules of structure (I) in table 2 below, the paramagnetic properties have been evaluated by the Evans method [D.F. Evans, J. Chem. Soc. 2003 (1959)]. This is based on nuclear magnetic measurements (NMR), and relies on the fact that the chemical shift (position) of the ^1H NMR signals of a molecule depend on the bulk susceptibility of the medium. In particular, the resonance line of the residual proton of CDCl3 (i.e. the NMR solvent) was used as a reference, by comparing its chemical shift for the pure CDCl3 and for a solution containing the molecules of structure (I).
As expected the mass susceptibility of the different complexes (molecules of structure (I)) vary depending on mass ratio between the paramagnetic ion (e.g. Ho^3+) and the organic DTPA-ligand (thus, it is smaller for the bigger ligands). […] Magnetism and magnetic materials. Cambridge University Press, 2010]

[2] = Preparation of paramagnetic oil with paraffin (mineral) oil; settings: typically 10-30 wt%, as co-component
Description: The complex 3 (molecules of structure (I)) is dissolved in the minimum amount of dichloromethane, so to have a homogeneous solution, after that a fatty alcohol (e.g. isofol® 12) is added (typically 10-40 wt%), and the resultant mixture rotary evaporated under high vacuum to completely eliminate the volatile dichloromethane, resulting in the target homogeneous transparent paramagnetic oil.
The composition is prepared according to example 5.1 but using paraffin (mineral) oil (typically 10-30 wt%) as co-component instead of the fatty alcohol.
This method is particularly suitable when using complexes with long chains (preferably more than 8 carbon atoms).

[3] = Verdet coefficient measurement (magneto-optic, Faraday effect); settings: 1 M aqueous solution (control)
Description: The composition is prepared according to example 5.1 but using isofol 12 to obtain a weight fraction of 23 % w/w of isofol 12, where Tb^3+ is used as the paramagnetic ion in structure (I). The Verdet coefficient was determined to be 17.1 rad T^-1 m^-1 at 410 nm wavelength, and 8.0 rad T^-1 m^-1 at 600 nm. As a control a 1 M TbCl3 aqueous solution was measured using the same method resulting in a Verdet coefficient of 14.1 rad T^-1 m^-1 at 410 nm wavelength, and 4.9 rad T^-1 m^-1 at 600 nm in agreement with literature.

Row | Compound | χmass [1] | χmol [1] [cm^3 mol^-1] | appearance of composition with mineral oil [2] | Verdet coefficient ([3]; 410 nm wavelength) [rad T^-1 m^-1] | Verdet coefficient ([3]; 600 nm) [rad T^-1 m^-1]
1 | Ho-DTPA-(2-octyl-1-dodecanol)2 | 3.72 (cm^3 g^-1) /10-5 | 0.0415 |  |  | 
2 | Ho-DTPA-(3,7-dimethy-1-octanol)2 | 5.05 (cm^3 g^-1) /10-5 | 0.0422 |  |  | 
3 | Ho-DTPA-(1-octadecanol)2 |  |  | homogeneous transparent fluid reacting to magnetic fields |  | 
4 | Ho-DTPA-(2-butyl-1-octanol)2 | 4.98 (cm^3 g^-1) /10-5 | 0.0350 |  |  | 
5 | [Cl][Tb]([Cl])[Cl] [TbCl3] |  |  |  | 14.1 | 4.9
6 | CC(=O)[O-].CC(=O)[O-].CC(=O)[O-].O.[Ho+3] [Ho(AcO)3 *nH2O, reference compound] | 11.0 (cm^3 g^-1) /10-5 | 0.037 |  |  | 
7 | Ho-DTPA-(hexanol)2 | 6.04 (cm^3 g^-1) /10-5 | 0.0437 |  |  | 
